The source of these data is BindingDB's records for doi:10.1016/j.bmcl.2013.03.093 (Rhône-Poulenc Rorer, 2013).

Each structure is given as a SMILES string. pIC50: −log10 of the molar value.

A short description of this assay: Antagonist activity at CRTh2 receptor in human whole blood assessed as inhibition of PGD2-induced eosinophil shape change preincubated for 10 mins followed by PGD2 addition measured after 4 mins by side scatter analysis.
Usually pIC50 stands for the IC50 on a negative log10 scale, so that one unit is a factor of ten. Consider `Cc1nn(Cc2ccccc2S(=O)(=O)c2ccccc2)c(C)c1CC(=O)O`, for which the negative-log IC50 (pIC50) was 5.77. Next, `Cc1c(CC(=O)O)c(=O)[nH]n1Cc1ccccc1S(=O)(=O)c1ccccc1`: 6.00. For the molecule `Cc1c(CC(=O)O)c(-c2ccc(Cl)cc2)nn1Cc1ccccc1S(=O)(=O)c1ccccc1`, the pIC50 is 5.09. As for `Cc1c(CC(=O)O)c(-c2ccccc2)nn1Cc1ccccc1S(=O)(=O)c1ccccc1`, the negative logarithm of the IC50 (pIC50) is 5.62. Consider `Cc1nn(-c2cccc(NC(=O)[C@H]3C[C@@H]3c3ccccc3)c2)c(C)c1CC(=O)O`, for which the negative-log IC50 (pIC50) is 5.68.
